Assay results reported in patent publication US20110256241A1, “METHODS AND COMPOSITIONS FOR THE TREATMENT OF CANCER” (TRASLATIONAL CANCER DRUGS PHARMA, S.L., priority 2008, published 2011).

Assays:
Assay type in all cases: cell-based, human
H460 cells = experiment: Cell proliferation assay (MTT)
Description: All cell lines used in this study were maintained under standard conditions of temperature (37° C.), humidity (95%), and carbon dioxide (5%). Human primary bronchial epithelial cells, NHBE (BEC) (Cambrex, CC-2541) were grown in BEGM (Bronchial Epithelial cell growth media) BulletKit (Cambrex, CC-3170). Human primary mammary epithelial cells, HMEC (Clonetics, CC-2551) were grown in MEBM medium supplemented with a bullet kit (Clonetics, CC-3150). Epithelial non-small lung cancer cells H460 and H1299, and small cell lung cancer cell lines H510 and H82 were maintained in RPMI supplemented with 10% Fetal Bovine Serum (FBS) (Life Technologies, Grand Island, N.Y.).
Cells were seeded on 96-well plates (BD, Falcon, Bioscience, San Jose, Calif., USA) at a density of 6000 cells/well, and incubated for 24 h under standard conditions. Then, cells were treated with different concentrations of the ChoK inhibitors (quadruplicates of each concentration) and maintained for 72 hours. […] Absorbance is read at 595 nm in a VersaMax Microplate Reader (Molecular Devices, Sunnyvale, Calif., USA). For sensitization with acid ceramidase inhibitor, cells were pre-treated […] with the correspondent IC50 for NOE before treatment with ChoK inhibitors. NOE (N-Oleoyl ethanolamine) was obtained from Calbiochem (La Jolla, Calif., USA).
Thus, disruption in the levels of acid ceramidase may allow ChoK inhibitors to have a better effect in these cells. To verify this hypothesis, we used the previously characterized acid ceramidase inhibitor, N-Oleoylethanolamine (NOE) (Grijalvo S., Chem Phys Lipids. 2006; 144:69-84), to investigate if the inhibition of acid ceramidase sensitizes tumour cell lines to ChoK inhibitors. To that end, H460 cells were pre-treated with NOE for three hours to inhibit acid ceramidase.
H460 cells were pre-treated with these compounds for three hours to inhibit ceramidases. […] Furthermore, the combined use of ChoK inhibitors and acid ceramidase inhibitors provides a further stronger anticancer activity.

DLD-1 cells = experiment: Apoptosis detection by flow cytometry, Annexin V & IP; settings: DLD-1, 7 hours treatment
Description: Cell death was analysed by flow cytometry using de Aposcreen Annexin V Apoptosis Kit (Southern Biotech) according to manufacturer procedures. Cells were seeded at 4×10^5 cells per well in six-well. Twenty-four hours later, cells were treated with the indicated compounds. Cells were rinsed twice in cold PBS and after removing it cells were resuspended in cold 1× binding buffer to a concentration from 1×10^6 to 1×10^7 cells/mL. 100 μl of these cells were collected in a flow cytometry tube and 10 μl of Annexin V were added. After gently vortexing, tubes were incubated for 15 minutes on ice, protected from light. Without washing, 380 μl of 1× binding buffer were added to each sample prior to 10 μl of propidium iodine. Cells were immediately analysed by flow cytometry.
The synergism observed in vitro was also analysed by flow cytometry using Annexin V & IP staining to distinguish between apoptosis and necrosis or late apoptosis. […] When DLD-1 cells are treated with TRAIL alone there is a 35% of apoptosis. In combination tumour cell death is amplified up to 50%. When DLD-1 are treated with RSM-932A (TCD-717) in combination with TRAIL there is a 55% increase in tumour cell death but mainly the necrotic or late apoptosis population because RSM-932A (TCD-717) has an effect that is faster than MN58. […]

DLD-1 colon cancer cells = experiment: QT-PCR validation of 5-FU metabolization pathway genes; design: key: DR (Down-regulation); UR (Up-regulation)
Description: (§1) 1 μg of RNA was used to generate cDNA using High-Capacity cDNA Archive Kit (Applied Biosystems), and quantitative real-time PCR was carried out in triplicate using the ABI PRISM 7700 Sequence Detector (Applied Biosystems). GAPDH and 18S ribosomal mRNA were amplified as internal controls. Probes used for amplification were from Applied Biosystems as Taqman Gene Expression Assays (ASAH1: HS00602774—M1 Taqman Probe, ASAH2: HS00184096_M1 Taqman Probe and ASAH3: HS00370322_M1 Taqman Probe, DUT: HS00798995_S1 Taqman Probe, TYMS: HS00426591_M1 Taqman Probe, UPP1: HS00427695—M1 Taqman Probe, RRM2: HS00357247_G1 Taqman Probe). The 2-^ΔΔCt method was used (Livak K J., Methods. 2001; 25:402-8) to calculate the relative expression of each gene.

HT29 colon cancer cells = experiment: as above; design: key: DR (Down-regulation); UR (Up-regulation)
Description: as §1

SW62 colon cancer cells = experiment: as above; design: key: DR (Down-regulation); UR (Up-regulation)
Description: as §1

## CN(C)c1cc[n+](Cc2ccc(CCCCc3ccc(C[n+]4ccc(N(C)C)cc4)cc3)cc2)cc1 [MN58b, 1,4-(4-4′-Bis-((4-(dimethylamine)pyridinium-1-yl)methyl)diphenyl)butane dibromide]
H460 cells
  figure in parentheses after IC50 48 h (not defined; fold vs primary cells): 6
  figure in parentheses after IC50 72 h (not defined; fold vs primary cells): 8
  figure in parentheses after IC50 144 h (not defined; fold vs primary cells): 3
DLD-1 cells
  apoptosis: only a little increase in apoptosis
DLD-1 colon cancer cells
  TYM expression: DR
  UPP expression: UR
HT29 colon cancer cells
  DUT expression: DR
  RRM expression: DR
  TYM expression: DR
SW62 colon cancer cells
  RRM expression: DR
  TYM expression: DR
  UPP expression: UR
